# In patent US20250122174A1 (Shenzhen Yuanli Shenwan Innovative Medicine Co., Ltd., priority 2022, published 2025):
# Molecular target: HPK1 (Homo sapiens (Human), UniProt Q92918)
# Experiment: HPK1 Inhibition Assay (ADP-Glo kinase assay)
# Format: biochemical
# Details: ATP 10 μM
# Outline: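 ADP-Glo luminescence read-out after 1 h room-temperature kinase reaction with 10 μM ATP and 0.1 μg/ml MBP. Recombinant human HPK1 at 7.5 ng/μl; buffer 40 mM Tris pH 7.5, 20 mM MgCl2. Compounds serially diluted 5-fold over 10 points from 10 mM DMSO stock.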
# HPK1, sequence (Q92918 1-346 limits assumed): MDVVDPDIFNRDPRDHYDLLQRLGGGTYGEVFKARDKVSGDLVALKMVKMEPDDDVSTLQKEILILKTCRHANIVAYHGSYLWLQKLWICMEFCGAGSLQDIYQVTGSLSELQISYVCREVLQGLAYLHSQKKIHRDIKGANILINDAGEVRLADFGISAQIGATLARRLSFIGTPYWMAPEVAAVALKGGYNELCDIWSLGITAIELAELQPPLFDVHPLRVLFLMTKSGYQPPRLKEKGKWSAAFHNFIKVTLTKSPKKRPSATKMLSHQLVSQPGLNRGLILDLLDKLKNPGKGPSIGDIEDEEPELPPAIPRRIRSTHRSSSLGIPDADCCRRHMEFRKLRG
row,IC50 [nM],Structure (SMILES)
1,< 100,"C[C@@H]1CN(c2c(NC(=O)c3ccc(=O)n(-c4c(F)cccc4F)n3)ccc3nn(C4(C(F)(F)F)CC4)cc23)C[C@@H]1N [Example 315, N-(4-((3R,4R)-3-amino-4-methylpyrrolidin-1-yl)-2-(1-(trifluoromethyl)cyclopropyl)-2H-indazol-5-yl)-1-(2,6-difluorophenyl)-6-oxo-1,6-dihydropyridazine-3-carboxamide]"
2,< 100,"CC1(C)CN(c2c(NC(=O)c3ccc(=O)n(-c4c(F)cccc4F)n3)ccc3nn(C4(C(F)(F)F)CC4)cc23)C[C@@H]1N (single isomer, unassigned) [Example 314]"
3,< 100,"C[C@H]1CN(c2c(NC(=O)c3ccc(=O)n(-c4c(F)cccc4F)n3)ccc3c2cnn3[C@H]2CCOC2)C[C@@H]1N [Example 260, N-(4-((3R,4S)-3-amino-4-methylpyrrolidin-1-yl)-1-((S)-tetrahydrofuran-3-yl)-1H-indazol-5-yl)-1-(2,6-difluorophenyl)-6-oxo-1,6-dihydropyridazine-3-carboxamide]"
4,< 100,"[2H]C([2H])([2H])C([2H])(n1ncc2c(N3C[C@@H](N)C(C)(C)C3)c(NC(=O)c3ccc(=O)n(-c4c(F)cccc4F)n3)ccc21)C([2H])([2H])[2H] [Example 282, (S)-N-(4-(4-amino-3,3-dimethylpyrrolidin-1-yl)-1-(propan-2-yl-d7)-1H-indaozl-5-yl)-1-(2,6-difluorophenyl)-6-oxo-1,6-dihydropyridazine-3-carboxamide]"
5,< 100,"Cc1nc2c(N3CC[C@H](N)C3)c(NC(=O)c3ccc(=O)n(-c4c(F)cccc4F)n3)ccc2n1C [Example 72, (S)-N-(4-(3-aminopyrrolidin-1-yl)-1,2-dimethyl-1H-benzo[d]imidazol-5-yl)-1-(2,6-difluorophenyl)-6-oxo-1,6-dihydropyridazine-3-carboxamide]"
6,< 100,"CC(C)n1ncc2c(N3C[C@@H](C)[C@@H](N)C3)c(NC(=O)c3ccc(=O)n(-c4c(F)cccc4F)n3)cc(F)c21 [Example 193, N-(4-((3R,4R)-3-amino-4-methylpyrrolidin-1-yl)-7-fluoro-1-isopropyl-1H-indazol-5-yl)-1-(2,6-difluorophenyl)-6-oxo-1,6-dihydropyridazine-3-carboxamide]"
7,< 100,"[2H]C([2H])([2H])C(n1ncc2c(N3C[C@@H](C)[C@@H](N)C3)c(NC(=O)c3ccc(=O)n(-c4c(F)cccc4F)n3)ccc21)C([2H])([2H])[2H] [Example 278, N-(4-((3R,4R)-3-amino-4-methylpyrrolidin-1-yl)-1-(propan-2-yl-1,1,1,3,3,3-d6)-1H-indazol-5-yl)-1-(2,6-difluorophenyl)-6-oxo-1,6-dihydropyridazine-3-carboxamide]"
8,< 100,"CCC(C)(C)n1cc2c(N3C[C@H](C)[C@@H](N)C3)c(NC(=O)c3ccc(=O)n(-c4c(F)cccc4F)n3)ccc2n1 [Example 243, N-(4-((3R,4S)-3-amino-4-methylpyrrolidin-1-yl)-2-(tert-pentyl)-2H-indazol-5-yl)-1-(2,6-difluorophenyl)-6-oxo-1,6-dihydropyridazine-3-carboxamide]"
9,< 100,"CC(C)c1nc2c(N3C[C@H]4CNC[C@H]4C3)c(NC(=O)c3ccc(=O)n(-c4c(F)cccc4F)n3)ccc2n1C [Example 137, 1-(2,6-difluorophenyl)-N-(4-((3aR,6aS)-hexahydropyrrolo[3,4-c]pyrrol-2(1H)-yl)-2-isopropyl-1-methyl-1H-benzo[d]imidazol-5-yl)-6-oxo-1,6-dihydropyridazine-3-carboxamide]"
10,< 100,"CC(C)n1ncc2c(N3C[C@@H](C)[C@@H](N)C3)c(NC(=O)c3ccc(=O)n(-c4ccccc4F)n3)ccc21 [Example 215, N-(4-((3R,4R)-3-amino-4-methylpyrrolidin-1-yl)-1-isopropyl-1H-indazol-5-yl)-1-(2-fluorophenyl)-6-oxo-1,6-dihydropyridazine-3-carboxamide]"
11,< 100,"CC(C)n1ncc2c(N3CCC(N)CC3)c(NC(=O)c3ccc(=O)n(-c4c(F)cccc4F)n3)cc(F)c21 [Example 217, N-(4-(4-aminopiperidin-1-yl)-7-fluoro-1-isopropyl-1H-indazol-5-yl)-1-(2,6-difluorophenyl)-6-oxo-1,6-dihydropyridazine-3-carboxamide]"
12,< 100,"CC(C)c1nc2c(N3C[C@H](C)[C@@H](N)C3)c(NC(=O)c3ccc(=O)n(-c4c(F)cccc4F)n3)ccc2n1C [Example 111, N-(4-((3R,4S)-3-amino-4-methylpyrrolidin-1-yl)-2-isopropyl-1-methyl-1H-benzo[d]imidazol-5-yl)-1-(2,6-difluorophenyl)-6-oxo-1,6-dihydropyridazine-3-carboxamide]"
13,< 100,"C[C@@H]1CN(c2c(NC(=O)c3ccc(=O)n(-c4c(F)cccc4F)n3)ccc3nn(C45CC(C)(C4)C5)cc23)C[C@@H]1N [Example 318, N-(4-((3R,4R)-3-amino-4-methylpyrrolidin-1-yl)-2-(3-methylbicyclo[1.1.1]pentan-1-yl)-2H-indazol-5-yl)-1-(2,6-difluorophenyl)-6-oxo-1,6-dihydropyridazine-3-carboxamide]"
14,< 100,"Cn1c(C2(C(F)(F)F)CC2)nc2c(N3C[C@H](N)C4(CC4)C3)c(NC(=O)c3ccc(=O)n(-c4c(F)cccc4F)n3)ccc21 [Example 149, (R)-N-(4-(7-amino-5-azaspiro[2.4]heptan-5-yl)-1-methyl-2-(1-(trifluoromethyl)cyclopropyl)-1H-benzo[d]imidazol-5-yl)-1-(2,6-difluorophenyl)-6-oxo-1,6-dihydropyridazine-3-carboxamide]"
15,< 100,"CC(C)(C)n1ncc2c(N3C[C@H](N)C4(CC4)C3)c(NC(=O)c3ccc(=O)n(-c4c(F)cccc4F)n3)ccc21 [Example 302, N-[4-[(7R)-7-amino-5-azaspiro[2.4]heptan-5-yl]-1-tert-butyl-indazol-5-yl]-1-(2,6-difluorophenyl)-6-oxo-pyridazine-3-carboxamide]"
16,100 to 1000,"COc1cccc(F)c1-c1nccc(C(=O)Nc2cc(F)ccc2N2C[C@@H]3C[C@H]2CN3)c1F [Example 1, N-(2-((1S,4S)-2,5-diazabicyclo[2.2.1]heptan-2-yl)-5-fluorophenyl)-3-fluoro-2-(2-fluoro-6-methoxyphenyl)isonicotinamide]"
17,< 100,"COc1cccc(F)c1-c1cccc(C(=O)Nc2cc(F)c3c(cnn3C)c2N2CC[C@H](N)C2)[n+]1[O-] [Example 58, 2-((4-((S)-3-aminopyrrolidin-1-yl)-7-fluoro-1-methyl-1H-indazol-5-yl)carbamoyl)-6-(2-fluoro-6-methoxyphenyl)pyridine 1-oxide]"
18,< 100,"CC(C)Cn1cc2c(N3CC[C@@H](N)C3)c(NC(=O)c3ccc(=O)n(-c4c(F)cccc4F)n3)ccc2n1 [Example 331, (R)-N-(4-(3-aminopyrrolidin-1-yl)-2-isobutyl-2H-indazol-5-yl)-1-(2,6-difluorophenyl)-6-oxo-1,6-dihydropyridazine-3-carboxamide]"
19,< 100,"COCCn1c(C)nc2c(N3CC[C@H](N)C3)c(NC(=O)c3ccc(=O)n(-c4c(F)cccc4F)n3)ccc21 [Example 89, (S)-N-(4-(3-aminopyrrolidin-1-yl)-1-(2-methoxyethyl)-2-methyl-1H-benzo[d]imidazol-5-yl)-1-(2,6-difluorophenyl)-6-oxo-1,6-dihydropyridazine-3-carboxamide]"
20,< 100,"Cc1nc2c(N3CC[C@@H](N)C3)c(NC(=O)c3ccc(=O)n(-c4c(F)cccc4F)n3)ccc2n1C [Example 73, (R)-N-(4-(3-aminopyrrolidin-1-yl)-1,2-dimethyl-1H-benzo[d]imidazol-5-yl)-1-(2,6-difluorophenyl)-6-oxo-1,6-dihydropyridazine-3-carboxamide]"
21,< 100,"C[C@H]1CN(c2c(NC(=O)c3ccc(=O)n(-c4c(F)cccc4F)n3)ccc3nn([C@@H]4CCOC4)cc23)C[C@@H]1N [Example 326, N-(4-((3R,4S)-3-amino-4-methylpyrrolidin-1-yl)-2-((R)-tetrahydrofuran-3-yl)-2H-indazol-5-yl)-1-(2,6-difluorophenyl)-6-oxo-1,6-dihydropyridazine-3-carboxamide]"
22,100 to 1000,"COc1cccc(F)c1-c1nccc(C(=O)Nc2ccc3c(nc(C)n3C)c2N2CCC[C@H]2CO)c1F [Example 9, 3-fluoro-2-(2-fluoro-6-methoxyphenyl)-N-(4-((S)-2-(hydroxymethyl)pyrrolidin-1-yl)-1,2-dimethyl-1H-benzo[d]imidazol-5-yl)isonicotinamide]"
23,< 100,"C[C@@H]1CN(c2c(NC(=O)c3ccc(=O)n(-c4c(F)cccc4F)n3)ccc3c2cnn3[C@H]2CCOC2)C[C@@H]1N [Example 255, N-(4-((3R,4R)-3-amino-4-methylpyrrolidin-1-yl)-1-((S)-tetrahydrofuran-3-yl)-1H-indazol-5-yl)-1-(2,6-difluorophenyl)-6-oxo-1,6-dihydropyridazine-3-carboxamide]"
24,< 100,"C[C@@H]1CN(c2c(NC(=O)c3ccc(=O)n(-c4c(F)cccc4F)n3)ccc3nn(C(C)(C)C(C)(C)C)cc23)C[C@@H]1N [Example 245, N-(4-((3R,4R)-3-amino-4-methylpyrrolidin-1-yl)-2-(2,3,3-trimethylbutan-2-yl)-2H-indazol-5-yl)-1-(2,6-difluorophenyl)-6-oxo-1,6-dihydropyridazine-3-carboxamide]"
25,100 to 1000,"COc1cccc(F)c1-n1cccc(C(=O)Nc2cc(F)c3nn(C)cc3c2N2C[C@H]3C[C@@H]2CN3)c1=O [Example 52, N-(4-((1R,4R)-2,5-diazabicyclo[2.2.1]heptan-2-yl)-7-fluoro-2-methyl-2H-indazol-5-yl)-1-(2-fluoro-6-methoxyphenyl)-2-oxo-1,2-dihydropyridine-3-carboxamide]"
26,< 100,"CC(C)(C)C(C)(C)n1cc2c(N3C[C@H](N)C4(CC4)C3)c(NC(=O)c3ccc(=O)n(-c4c(F)cccc4F)n3)ccc2n1 [Example 246, (R)-N-(4-(7-amino-5-azaspiro[2.4]heptan-5-yl)-2-(2,3,3-trimethylbutan-2-yl)-2H-indazol-5-yl)-1-(2,6-difluorophenyl)-6-oxo-1,6-dihydropyridazine-3-carboxamide]"
